Measurements published in PubChem BioAssay AID1963870 (Molecular Pharmacology Branch, DTP, NCI, 2024).
pIC50: −log10 of the molar value.

Tested on: 292921-168-R-J2-PDC KRAS tumor spheroid viability
Test: Anticancer human tumor 292921-168-R-J2-PDC patient-derived pancreatic carcinoma cell line growth inhibition [KRAS2]
Details: spheroids with HUVEC and MSC; for pIC50: curve of first compound; for viability, T/C: stronger effect = lower value; active means viability on the fitted dose curve at most 10% of control; inactive means the rest
Procedure, shortened: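 KRAS-mutant tumor cells were grown as spheroids with HUVEC endothelial cells and human MSCs as stroma. Targeted agents were tested alone and with KRAS pathway inhibitors. Doses started at or near clinical Cmax, or 10 microM, descending half-log.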

[1] = second compound 0.1 µM, first compound 0.0316 µM
[2] = second compound 0.1 µM, first compound 0.1 µM
[3] = second compound 0.316 µM, first compound 0.0316 µM
[4] = second compound 0.316 µM, first compound 0.1 µM
[5] = second compound 1 µM, first compound 0.0316 µM
[6] = second compound 1 µM, first compound 0.1 µM
[7] = second compound 3.16 µM, first compound 0.0316 µM
[8] = second compound 3.16 µM, first compound 0.1 µM
[9] = second compound 10 µM, first compound 0.0316 µM
[10] = second compound 10 µM, first compound 0.1 µM
[11] = second compound 0.1 µM, first compound 0.316 µM
[12] = second compound 0.1 µM, first compound 1 µM
[13] = second compound 0.1 µM, first compound 3.16 µM
[14] = second compound 0.1 µM, first compound 10 µM
[15] = second compound 0.316 µM, first compound 0.316 µM
[16] = second compound 0.316 µM, first compound 1 µM
[17] = second compound 0.316 µM, first compound 3.16 µM
[18] = second compound 0.316 µM, first compound 10 µM
[19] = second compound 1 µM, first compound 0.316 µM
[20] = second compound 1 µM, first compound 1 µM
[21] = second compound 1 µM, first compound 3.16 µM
[22] = second compound 1 µM, first compound 10 µM
[23] = second compound 3.16 µM, first compound 0.316 µM
[24] = second compound 3.16 µM, first compound 1 µM
[25] = second compound 3.16 µM, first compound 3.16 µM
[26] = second compound 3.16 µM, first compound 10 µM
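Further: drug exposure lasted seven days after spheroids formed for three days.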
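Wherever viability, T/C is given: percent of DMSO vehicle control viability which is 100%.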

CN(C)C/C=C/C(=O)Nc1cc2c(Nc3ccc(F)c(Cl)c3)ncnc2cc1O[C@H]1CCOC1 + C=CC(=O)N1CCN(c2nc(=O)n(-c3c(C)ccnc3C(C)C)c3nc(-c4c(O)cccc4F)c(F)cc23)C(C)C1
> 9.50: pIC50 (second compound 10 µM)
inactive: viability, T/C (second compound 0.1 µM, first compound 0.000316 µM) 119% | viability, T/C (second compound 0.1 µM, first compound 0.001 µM) 110% | viability, T/C (second compound 0.1 µM, first compound 0.00316 µM) 94% | viability, T/C (second compound 0.1 µM, first compound 0.01 µM) 86.2% | viability, T/C [1] 95.3% | viability, T/C [2] 76.5% | viability, T/C (second compound 0.316 µM, first compound 0.000316 µM) 118% | viability, T/C (second compound 0.316 µM, first compound 0.001 µM) 114% | viability, T/C (second compound 0.316 µM, first compound 0.00316 µM) 104% | viability, T/C (second compound 0.316 µM, first compound 0.01 µM) 104% | viability, T/C [3] 96.4% | viability, T/C [4] 89.4% | viability, T/C (second compound 1 µM, first compound 0.000316 µM) 117% | viability, T/C (second compound 1 µM, first compound 0.001 µM) 107% | viability, T/C (second compound 1 µM, first compound 0.00316 µM) 106% | viability, T/C (second compound 1 µM, first compound 0.01 µM) 90.7% | viability, T/C [5] 101% | viability, T/C [6] 87.2% | viability, T/C (second compound 3.16 µM, first compound 0.000316 µM) 71.7% | viability, T/C (second compound 3.16 µM, first compound 0.001 µM) 67% | viability, T/C (second compound 3.16 µM, first compound 0.00316 µM) 66.6% | viability, T/C (second compound 3.16 µM, first compound 0.01 µM) 71.9% | viability, T/C [7] 68.4% | viability, T/C [8] 53.5% | viability, T/C (second compound 10 µM, first compound 0.000316 µM) 29.3% | viability, T/C (second compound 10 µM, first compound 0.001 µM) 24.5% | viability, T/C (second compound 10 µM, first compound 0.00316 µM) 22.8% | viability, T/C (second compound 10 µM, first compound 0.01 µM) 23% | viability, T/C [9] 20.9% | viability, T/C [10] 19.2%
< 7.00: pIC50 (second compound 0.1 µM) | pIC50 (second compound 0.316 µM) | pIC50 (second compound 1 µM) | pIC50 (second compound 3.16 µM)

COc1cc2nccc(Oc3ccc(NC(=O)C4(C(=O)Nc5ccc(F)cc5)CC4)cc3)c2cc1OC + C=CC(=O)N1CCN(c2nc(=O)n(-c3c(C)ccnc3C(C)C)c3nc(-c4c(O)cccc4F)c(F)cc23)C(C)C1
inactive: viability, T/C [1] 102% | viability, T/C [2] 102% | viability, T/C [11] 103% | viability, T/C [12] 79.6% | viability, T/C [13] 28.9% | viability, T/C [14] 18.6% | viability, T/C [3] 122% | viability, T/C [4] 112% | viability, T/C [15] 102% | viability, T/C [16] 77% | viability, T/C [17] 30.9% | viability, T/C [18] 19.8% | viability, T/C [5] 111% | viability, T/C [6] 108% | viability, T/C [19] 96.3% | viability, T/C [20] 69.3% | viability, T/C [21] 27% | viability, T/C [22] 17.2% | viability, T/C [7] 74.1% | viability, T/C [8] 77.6% | viability, T/C [23] 62.9% | viability, T/C [24] 49.6% | viability, T/C [25] 18.9% | viability, T/C [26] 14% | viability, T/C [9] 18.9% | viability, T/C [10] 25.4% | viability, T/C (second compound 10 µM, first compound 0.316 µM) 15.7% | viability, T/C (second compound 10 µM, first compound 1 µM) 22.5% | viability, T/C (second compound 10 µM, first compound 3.16 µM) 11.1%
active: viability, T/C (second compound 10 µM, first compound 10 µM) 6.69%
5.70: pIC50 (second compound 0.316 µM)
6.09: pIC50 (second compound 3.16 µM)
5.71: pIC50 (second compound 0.1 µM)
> 7.50: pIC50 (second compound 10 µM)
5.77: pIC50 (second compound 1 µM)

CCNC(=O)CC1N=C(c2ccc(Cl)cc2)c2cc(OC)ccc2-n2c(C)nnc21 (stereo not given) + C=CC(=O)N1CCN(c2nc(OCC3CCCN3C)nc3c2CCN(c2cccc4cccc(C)c24)C3)CC1CC#N
< 5.00: pIC50 (second compound 0.0316 µM)
> 7.50: pIC50 (second compound 1 µM) | pIC50 (second compound 3.16 µM)
active: viability, T/C [22] 8.19% | viability, T/C [7] 0.21% | viability, T/C [8] 0.11% | viability, T/C [23] 0.1% | viability, T/C [24] 0.1% | viability, T/C [25] 0.1% | viability, T/C [26] 0.26%
6.19: pIC50 (second compound 0.316 µM)
5.91: pIC50 (second compound 0.1 µM)
inactive: viability, T/C (second compound 0.0316 µM, first compound 0.0316 µM) 104% | viability, T/C (second compound 0.0316 µM, first compound 0.1 µM) 99.5% | viability, T/C (second compound 0.0316 µM, first compound 0.316 µM) 69.9% | viability, T/C (second compound 0.0316 µM, first compound 1 µM) 63.6% | viability, T/C (second compound 0.0316 µM, first compound 3.16 µM) 53.9% | viability, T/C (second compound 0.0316 µM, first compound 10 µM) 49.2% | viability, T/C [1] 94% | viability, T/C [2] 90.2% | viability, T/C [11] 59.1% | viability, T/C [12] 53.7% | viability, T/C [13] 48% | viability, T/C [14] 34.3% | viability, T/C [3] 106% | viability, T/C [4] 92.2% | viability, T/C [15] 59.2% | viability, T/C [16] 45.1% | viability, T/C [17] 34.2% | viability, T/C [18] 29.2% | viability, T/C [5] 42.4% | viability, T/C [6] 33% | viability, T/C [19] 26.1% | viability, T/C [20] 18.4% | viability, T/C [21] 13.7%
